“Also recorded” adds a separate entry of the source.
Assays:
LexPR transactivator [1] = molecular target: T1, LexPR transactivator (Homo sapiens, UniProt P06401); experiment: Time required to switch off EGFP reporter expression after mifepristone withdrawal; format: in vivo, zebrafish; design: key to Reporter expression, RU486 incubation / Reporter expression after RU486 withdrawal / Reporter expression, continuous induction (time of RU486 incubation): +: Fluorescence signal is similar to the control.; ±: Fluorescence signal is obviously weaker that in control.; −: No EGFP fluorescence (except autofluorescence)observed using the fluorescent stereomicroscope
T1 construct: expressed in transfected cells; host or cells: germline-transgenic zebrafish (Danio rerio) carrying the Ds transposon driver cassette pDs(krt8:LPR-LOP:G4) or derivatives
T1 sequence (P06401 640-914): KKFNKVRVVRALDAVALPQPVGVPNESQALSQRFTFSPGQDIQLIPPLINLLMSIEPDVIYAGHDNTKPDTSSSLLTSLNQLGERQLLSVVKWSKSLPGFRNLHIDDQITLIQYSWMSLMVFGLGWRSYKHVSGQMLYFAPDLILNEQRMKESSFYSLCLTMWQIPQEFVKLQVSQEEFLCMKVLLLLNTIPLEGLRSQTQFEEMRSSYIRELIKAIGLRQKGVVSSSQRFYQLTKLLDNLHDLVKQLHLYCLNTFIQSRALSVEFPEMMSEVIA
Source text: To avoid confusion, the corresponding developmental times are indicated. A Nikon SMZ1600 fluorescent stereomicroscope was used for rough estimation of the EGFP fluorescence.

LexPR transactivator [2] = molecular target: T1, LexPR transactivator; experiment: Control of maternal EGFP expression by treating transgenic females; format: in vivo, zebrafish; conditions: 1 μM for 12 hours before crossing

CC#C[C@]1(O)CC[C@H]2[C@@H]3CCC4=CC(=O)CCC4=C3[C@@H](c3ccc(N(C)C)cc3)C[C@@]21C [mifepristone]
Reporter expression, continuous induction (time of RU486 incubation) (LexPR transactivator [1]; 10 nM, 1 h incubation): − | Reporter expression, continuous induction (time of RU486 incubation) (LexPR transactivator [1]; 10 nM, 12 h incubation): ± | Reporter expression, continuous induction (time of RU486 incubation) (LexPR transactivator [1]; 10 nM, 13 h incubation, 49hpf): ± | Reporter expression, continuous induction (time of RU486 incubation) (LexPR transactivator [1]; 10 nM, 24 h incubation, 60hpf): + | Reporter expression, RU486 incubation (LexPR transactivator [1]; 100 nM, 1 hour RU486 incubation - withdrawal, at 1 h incubation, 37hpf): − | Reporter expression after RU486 withdrawal (LexPR transactivator [1]; 100 nM, 1 hour RU486 incubation, 12 h after withdrawal, 49hpf): + | Reporter expression after RU486 withdrawal (LexPR transactivator [1]; 100 nM, 1 hour RU486 incubation, 24 h after withdrawal, 61hpf): + | Reporter expression after RU486 withdrawal (LexPR transactivator [1]; 100 nM, 1 hour RU486 incubation, 48 h after withdrawal, 85hpf): − | Reporter expression after RU486 withdrawal (LexPR transactivator [1]; 100 nM, 1 hour RU486 incubation, 72 h after withdrawal, 109hpf): − | Reporter expression after RU486 withdrawal (LexPR transactivator [1]; 100 nM, 1 hour RU486 incubation, 96 h after withdrawal, 133hpf): − | Reporter expression after RU486 withdrawal (LexPR transactivator [1]; 100 nM, 1 hour RU486 incubation, 120 h after withdrawal, 157hpf): − | Reporter expression after RU486 withdrawal (LexPR transactivator [1]; 100 nM, 1 hour RU486 incubation, 144 h after withdrawal, 181hpf): − | Minimal time after RU486 withdrawal to turn off the reporter expression (LexPR transactivator [1]; 100 nM, 1 hour induction): 2 days | Reporter expression, RU486 incubation (LexPR transactivator [1]; 100 nM, 12 hours RU486 incubation - withdrawal, at 12 h incubation, 48hpf): + | Reporter expression after RU486 withdrawal (LexPR transactivator [1]; 100 nM, 12 hours RU486 incubation, 12 h after withdrawal, 60hpf): + | Reporter expression after RU486 withdrawal (LexPR transactivator [1]; 100 nM, 12 hours RU486 incubation, 24 h after withdrawal, 72hpf): ± | Reporter expression after RU486 withdrawal (LexPR transactivator [1]; 100 nM, 12 hours RU486 incubation, 48 h after withdrawal, 96hpf): ± | Reporter expression after RU486 withdrawal (LexPR transactivator [1]; 100 nM, 12 hours RU486 incubation, 72 h after withdrawal, 120hpf): − | Reporter expression after RU486 withdrawal (LexPR transactivator [1]; 100 nM, 12 hours RU486 incubation, 96 h after withdrawal, 144hpf): − | Reporter expression after RU486 withdrawal (LexPR transactivator [1]; 100 nM, 12 hours RU486 incubation, 120 h after withdrawal, 168hpf): − | Reporter expression after RU486 withdrawal (LexPR transactivator [1]; 100 nM, 12 hours RU486 incubation, 144 h after withdrawal, 192hpf): − | Minimal time after RU486 withdrawal to turn off the reporter expression (LexPR transactivator [1]; 100 nM, 12 hours induction): 3 days | Reporter expression, continuous induction (time of RU486 incubation) (LexPR transactivator [1]; 100 nM, 24-156 h incubation, 60-192 hpf): + | Reporter expression, continuous induction (time of RU486 incubation) (LexPR transactivator [1]; 100 nM, 1 h incubation): − | Reporter expression, continuous induction (time of RU486 incubation) (LexPR transactivator [1]; 100 nM, 12 h incubation): + | Reporter expression, continuous induction (time of RU486 incubation) (LexPR transactivator [1]; 100 nM, 13 h incubation, 49hpf): + | Reporter expression, continuous induction (time of RU486 incubation) (LexPR transactivator [1]; 100 nM, 24 h incubation, 60hpf): + | Reporter expression, RU486 incubation (LexPR transactivator [1]; 1 μM, 1 hour RU486 incubation - withdrawal, at 1 h incubation, 37hpf): − | Reporter expression after RU486 withdrawal (LexPR transactivator [1]; 1 μM, 1 hour RU486 incubation, 12 h after withdrawal, 49hpf): + | Reporter expression after RU486 withdrawal (LexPR transactivator [1]; 1 μM, 1 hour RU486 incubation, 24 h after withdrawal, 61hpf): + | Reporter expression after RU486 withdrawal (LexPR transactivator [1]; 1 μM, 1 hour RU486 incubation, 48 h after withdrawal, 85hpf): + | Reporter expression after RU486 withdrawal (LexPR transactivator [1]; 1 μM, 1 hour RU486 incubation, 72 h after withdrawal, 109hpf): ± | Reporter expression after RU486 withdrawal (LexPR transactivator [1]; 1 μM, 1 hour RU486 incubation, 96 h after withdrawal, 133hpf): ± | Reporter expression after RU486 withdrawal (LexPR transactivator [1]; 1 μM, 1 hour RU486 incubation, 120 h after withdrawal, 157hpf): − | Reporter expression after RU486 withdrawal (LexPR transactivator [1]; 1 μM, 1 hour RU486 incubation, 144 h after withdrawal, 181hpf): − | Minimal time after RU486 withdrawal to turn off the reporter expression (LexPR transactivator [1]; 1 μM, 1 hour induction): 5 days | Reporter expression, RU486 incubation (LexPR transactivator [1]; 1 μM, 12 hours RU486 incubation - withdrawal, at 12 h incubation, 48hpf): + | Reporter expression after RU486 withdrawal (LexPR transactivator [1]; 1 μM, 12 hours RU486 incubation, 12 h after withdrawal, 60hpf): + | Reporter expression after RU486 withdrawal (LexPR transactivator [1]; 1 μM, 12 hours RU486 incubation, 24 h after withdrawal, 72hpf): + | Reporter expression after RU486 withdrawal (LexPR transactivator [1]; 1 μM, 12 hours RU486 incubation, 48 h after withdrawal, 96hpf): + | Reporter expression after RU486 withdrawal (LexPR transactivator [1]; 1 μM, 12 hours RU486 incubation, 72 h after withdrawal, 120hpf): ± | Reporter expression after RU486 withdrawal (LexPR transactivator [1]; 1 μM, 12 hours RU486 incubation, 96 h after withdrawal, 144hpf): ± | Reporter expression after RU486 withdrawal (LexPR transactivator [1]; 1 μM, 12 hours RU486 incubation, 120 h after withdrawal, 168hpf): ± | Reporter expression after RU486 withdrawal (LexPR transactivator [1]; 1 μM, 12 hours RU486 incubation, 144 h after withdrawal, 192hpf): − | Minimal time after RU486 withdrawal to turn off the reporter expression (LexPR transactivator [1]; 1 μM, 12 hours induction): 6 days | Reporter expression, continuous induction (time of RU486 incubation) (LexPR transactivator [1]; 1 μM, 24-156 h incubation, 60-192 hpf): + | Reporter expression, continuous induction (time of RU486 incubation) (LexPR transactivator [1]; 1 μM, 1 h incubation): − | Reporter expression, continuous induction (time of RU486 incubation) (LexPR transactivator [1]; 1 μM, 12 h incubation): + | Reporter expression, continuous induction (time of RU486 incubation) (LexPR transactivator [1]; 1 μM, 13 h incubation, 49hpf): + | Reporter expression, continuous induction (time of RU486 incubation) (LexPR transactivator [1]; 1 μM, 24 h incubation, 60hpf): + | Duration of EGFP fluorescence in mifepristone-free water (LexPR transactivator [1]; following 12 hours treatment with 1 μM): 5 days | Maternal EGFP expression in offspring of treated transgenic F2 females (LexPR transactivator [2]): produced GFP-positive eggs; also recorded: All the F3 embryos showed maternal EGFP expression

From patent US8852928B2, “LexA-based chemical-inducible gene expression system for use in transgenic animals” (Temasek Life Sciences Laboratory Limited, priority 2007, dated 2014)
